Experimental data taken from patent publication US7425608B2, “Method of making metallopeptides” (Palatin Technologies, Inc., priority 1998, dated 2008).
Read-outs that look alike come from different tables or passages of the source. *: point of attachment. Cbz = O=C(OCc1ccccc1)*

How the values were obtained:
[1] = cited from earlier work
[2] = molecular target: T1, human neutrophil elastase (HNE) (Homo sapiens, UniProt P08246); experiment: Human neutrophil elastase inhibition, spectrophotometric assay with chromogenic p-nitroanilide substrate; assay type: biochemical; details: individually resynthesised ReO metallopeptides Z-Aaa-Ser-Cys-Val-NH2 (deconvolution of the most active pool)
T1 construct: purchased Sigma (St. Louis, Mo.)
T1 sequence (P08246 30-267): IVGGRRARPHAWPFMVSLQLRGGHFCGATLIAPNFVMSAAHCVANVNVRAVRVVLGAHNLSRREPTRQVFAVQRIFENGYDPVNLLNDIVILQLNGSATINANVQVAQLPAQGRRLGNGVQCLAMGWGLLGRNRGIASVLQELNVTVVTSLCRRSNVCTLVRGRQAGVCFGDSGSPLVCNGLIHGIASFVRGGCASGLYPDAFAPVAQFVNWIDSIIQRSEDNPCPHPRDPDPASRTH
Method: Purified human neutrophil elastase (HNE) was purchased from Sigma (St. Louis, Mo.). The assay was performed spectrophotometrically using a chromogenic p-nitroanilide substrate, MeOSuc-Ala-Ala-Pro-Val-pNA, also purchased from Sigma. The assay protocols were similar to those described by others (e.g., Nakajima K et al: J Biol Chem, 254:4027-4032, 1979). Briefly, 0.05 units of HNE were treated with 1 mM concentration of the library pool in the presence of p-nitroanilide substrate. Spectrophotometric measurement were made at a wavelength of 410 nm. […] Also, among this limited series of compounds, benzyloxycarbonyl group was identified as a preferred R group where Bbb was a Gly, Ala, or Ser residue.
The pool with highest activity, Z-Aaa-Ser-Cys-Val-NH2, was deconvoluted by an iterative resynthesis process. All five individual peptides in this pool were synthesized by the methodologies and protocols of Example 10. Each individual peptide was characterized by mass spectrometry and HPLC. A screening assay was performed as generally described in Example 11. The best results were obtained with Leu or Ile in the position Aaa in the peptide chain. […] Substitution of the three residues Ala, Phe, and Lys(N-Z) at Aaa yielded IC50 values in excess of 1,000 μM.

[3] = related to the ionic core charge of the metal complex

| Molecule | compartmentalisation / excretion / passage across biological barriers [1, 3] | IC50 [2] [µM] | also measured |
| --- | --- | --- | --- |
| O=C(O)CNC(=O)CNC(=O)CNC(=O)CS [^99mTc-MAG3, mercaptoacetylglycylglycylglycine, metal not drawn] | excreted through the kidneys | – | – |
| methoxyisobutylisonitrile [^99mTc-MIBI] | – | – | compartmentalisation / excretion / passage across biological barriers ([1]; in vivo): compartmentalized in heart muscles |
| CCOC(=O)[C@H](C[S-])[N-]CCN[C@@H](C[S-])C(=O)OCC.[O-2].[Tc] [^99mTc-ECD, ethyl cysteinate dimer] | pass through the blood-brain barrier | – | – |
| Cbz-ISCV-NH2 | – | 179 | – |
| Z-Lys(N,-Z)-Ser-Cys-Val-NH2 | – | > 1000 | – |
| Z-Leu-Ser-Cys-Val-NH2 (Cbz-LSCV-NH2; not fully specified; printed as Z-Leu-Ser-Cys-Val-NH2) | – | 139 | – |
| C/C(=N\O)C(C)NCC(C)(C)CNC(C)/C(C)=N/O (stereo not shown) [^99mTc-HMPAO, hexamethylpropyleneamine oxime, metal not drawn] | pass through the blood-brain barrier | – | – |
